Experimental data: ChEMBL document CHEMBL3112480, “γ-Alkylidene-γ-lactones and isobutylpyrrol-2(5H)-ones analogues to rubrolides as inhibitors of biofilm formation by gram-positive and gram-negative bacteria” (Bioorg Med Chem Lett, 2014)
Values after ≈ are worked out from the molar mass of the structure shown. Values belong to the compound of their own block, whether it stands above or below them.

What was measured:
Streptococcus mutans [1] = assay: Antibacterial activity against Streptococcus mutans ATCC 25175 assessed as effect on planktonic growth at 21.9 ug/ml after 20 hrs relative to control; type: functional
Streptococcus mutans [2] = assay: Antibacterial activity against Streptococcus mutans ATCC 25175 assessed as effect on planktonic growth at 43.8 ug/ml after 20 hrs relative to control; type: functional
Streptococcus mutans [3] = assay: Antibacterial activity against Streptococcus mutans ATCC 25175 assessed as effect on planktonic growth at 87.5 ug/ml after 20 hrs relative to control; type: functional
Staphylococcus aureus [4] = assay: Antibacterial activity against Staphylococcus aureus ATCC 25923 assessed as effect on planktonic growth at 0.17 ug/ml after 20 hrs relative to control; type: functional
Staphylococcus aureus [5] = assay: Antibacterial activity against Staphylococcus aureus ATCC 25923 assessed as effect on planktonic growth at 0.34 ug/ml after 20 hrs relative to control; type: functional
Staphylococcus aureus [6] = assay: Antibacterial activity against Staphylococcus aureus ATCC 25923 assessed as effect on planktonic growth at 0.68 ug/ml after 20 hrs relative to control; type: functional
Staphylococcus aureus [7] = assay: Antibacterial activity against Staphylococcus aureus ATCC 25923 assessed as effect on planktonic growth at 1.37 ug/ml after 20 hrs relative to control; type: functional
Staphylococcus aureus [8] = assay: Antibacterial activity against Staphylococcus aureus ATCC 25923 assessed as effect on planktonic growth at 5.5 ug/ml after 20 hrs relative to control; type: functional
Staphylococcus aureus [9] = assay: Antibacterial activity against Staphylococcus aureus ATCC 25923 assessed as effect on planktonic growth at 2.73 ug/ml after 20 hrs relative to control; type: functional
Staphylococcus aureus [10] = assay: Antibacterial activity against Staphylococcus aureus ATCC 25923 assessed as effect on planktonic growth at 10.9 ug/ml after 20 hrs relative to control; type: functional
Staphylococcus aureus [11] = assay: Antibacterial activity against Staphylococcus aureus ATCC 25923 assessed as effect on planktonic growth at 21.9 ug/ml after 20 hrs relative to control; type: functional
Staphylococcus aureus [12] = assay: Antibacterial activity against Staphylococcus aureus ATCC 25923 assessed as effect on planktonic growth at 43.8 ug/ml after 20 hrs relative to control; type: functional
Staphylococcus aureus [13] = assay: Antibacterial activity against Staphylococcus aureus ATCC 25923 assessed as effect on planktonic growth at 87.5 ug/ml after 20 hrs relative to control; type: functional
Pseudomonas aeruginosa [14] = assay: Antibacterial activity against Pseudomonas aeruginosa ATCC 27853 assessed as effect on planktonic growth at 0.17 ug/ml after 20 hrs relative to control; type: functional
Pseudomonas aeruginosa [15] = assay: Antibacterial activity against Pseudomonas aeruginosa ATCC 27853 assessed as effect on planktonic growth at 0.34 ug/ml after 20 hrs relative to control; type: functional
Pseudomonas aeruginosa [16] = assay: Antibacterial activity against Pseudomonas aeruginosa ATCC 27853 assessed as effect on planktonic growth at 0.68 ug/ml after 20 hrs relative to control; type: functional
Pseudomonas aeruginosa [17] = assay: Antibacterial activity against Pseudomonas aeruginosa ATCC 27853 assessed as effect on planktonic growth at 1.37 ug/ml after 20 hrs relative to control; type: functional
Pseudomonas aeruginosa [18] = assay: Antibacterial activity against Pseudomonas aeruginosa ATCC 27853 assessed as effect on planktonic growth at 2.73 ug/ml after 20 hrs relative to control; type: functional
Pseudomonas aeruginosa [19] = assay: Antibacterial activity against Pseudomonas aeruginosa ATCC 27853 assessed as effect on planktonic growth at 5.5 ug/ml after 20 hrs relative to control; type: functional
Pseudomonas aeruginosa [20] = assay: Antibacterial activity against Pseudomonas aeruginosa ATCC 27853 assessed as effect on planktonic growth at 10.9 ug/ml after 20 hrs relative to control; type: functional
Pseudomonas aeruginosa [21] = assay: Antibacterial activity against Pseudomonas aeruginosa ATCC 27853 assessed as effect on planktonic growth at 21.9 ug/ml after 20 hrs relative to control; type: functional
Pseudomonas aeruginosa [22] = assay: Antibacterial activity against Pseudomonas aeruginosa ATCC 27853 assessed as effect on planktonic growth at 43.8 ug/ml after 20 hrs relative to control; type: functional
Pseudomonas aeruginosa [23] = assay: Antibacterial activity against Pseudomonas aeruginosa ATCC 27853 assessed as effect on planktonic growth at 87.5 ug/ml after 20 hrs relative to control; type: functional
[24] = test system: Staphylococcus epidermidis; assay: Antibacterial activity against Staphylococcus epidermidis ATCC 35547 assessed as effect on planktonic growth at 0.17 ug/ml after 20 hrs relative to control; type: functional
[25] = test system: Staphylococcus epidermidis; assay: Antibacterial activity against Staphylococcus epidermidis ATCC 35547 assessed as effect on planktonic growth at 0.34 ug/ml after 20 hrs relative to control; type: functional
[26] = test system: Staphylococcus epidermidis; assay: Antibacterial activity against Staphylococcus epidermidis ATCC 35547 assessed as effect on planktonic growth at 0.68 ug/ml after 20 hrs relative to control; type: functional
[27] = test system: Staphylococcus epidermidis; assay: Antibacterial activity against Staphylococcus epidermidis ATCC 35547 assessed as effect on planktonic growth at 1.37 ug/ml after 20 hrs relative to control; type: functional
[28] = test system: Staphylococcus epidermidis; assay: Antibacterial activity against Staphylococcus epidermidis ATCC 35547 assessed as effect on planktonic growth at 2.73 ug/ml after 20 hrs relative to control; type: functional
[29] = test system: Staphylococcus epidermidis; assay: Antibacterial activity against Staphylococcus epidermidis ATCC 35547 assessed as effect on planktonic growth at 5.5 ug/ml after 20 hrs relative to control; type: functional
[30] = test system: Staphylococcus epidermidis; assay: Antibacterial activity against Staphylococcus epidermidis ATCC 35547 assessed as effect on planktonic growth at 10.9 ug/ml after 20 hrs relative to control; type: functional
[31] = test system: Staphylococcus epidermidis; assay: Antibacterial activity against Staphylococcus epidermidis ATCC 35547 assessed as effect on planktonic growth at 21.9 ug/ml after 20 hrs relative to control; type: functional
[32] = test system: Staphylococcus epidermidis; assay: Antibacterial activity against Staphylococcus epidermidis ATCC 35547 assessed as effect on planktonic growth at 43.8 ug/ml after 20 hrs relative to control; type: functional
[33] = test system: Staphylococcus epidermidis; assay: Antibacterial activity against Staphylococcus epidermidis ATCC 35547 assessed as effect on planktonic growth at 87.5 ug/ml after 20 hrs relative to control; type: functional
Streptococcus mutans [34] = assay: Induction of biofilm formation in Streptococcus mutans ATCC 25175 at 44 ug/ml after 20 hrs by crystal-violet staining method relative to control
Pseudomonas aeruginosa [35] = assay: Antibacterial activity against Pseudomonas aeruginosa ATCC 27853 assessed as inhibition of biofilm formation after 20 hrs by crystal-violet staining method; type: functional, organism-based; settings: for IC50: ATCC 27853, 20 h
[36] = test system: Staphylococcus epidermidis; assay: Antibacterial activity against Staphylococcus epidermidis ATCC 35547 assessed as inhibition of biofilm formation after 20 hrs by crystal-violet staining method; type: functional, organism-based; settings: for IC50: ATCC 35547, 20 h
Streptococcus mutans [37] = assay: Antibacterial activity against Streptococcus mutans ATCC 25175 assessed as effect on planktonic growth at 0.17 ug/ml after 20 hrs relative to control; type: functional
Streptococcus mutans [38] = assay: Antibacterial activity against Streptococcus mutans ATCC 25175 assessed as effect on planktonic growth at 0.34 ug/ml after 20 hrs relative to control; type: functional
Streptococcus mutans [39] = assay: Antibacterial activity against Streptococcus mutans ATCC 25175 assessed as effect on planktonic growth at 0.68 ug/ml after 20 hrs relative to control; type: functional
Streptococcus mutans [40] = assay: Antibacterial activity against Streptococcus mutans ATCC 25175 assessed as effect on planktonic growth at 1.37 ug/ml after 20 hrs relative to control; type: functional
Streptococcus mutans [41] = assay: Antibacterial activity against Streptococcus mutans ATCC 25175 assessed as effect on planktonic growth at 2.73 ug/ml after 20 hrs relative to control; type: functional
Streptococcus mutans [42] = assay: Antibacterial activity against Streptococcus mutans ATCC 25175 assessed as effect on planktonic growth at 5.5 ug/ml after 20 hrs relative to control; type: functional
Streptococcus mutans [43] = assay: Antibacterial activity against Streptococcus mutans ATCC 25175 assessed as effect on planktonic growth at 10.9 ug/ml after 20 hrs relative to control; type: functional
Staphylococcus aureus [44] = assay: Antibacterial activity against Staphylococcus aureus ATCC 25923 assessed as inhibition of biofilm formation after 20 hrs by crystal-violet staining method; type: functional, organism-based; settings: ATCC 25923, 20 h
Staphylococcus aureus [45] = assay: Antibacterial activity against Staphylococcus aureus ATCC 25923 assessed as inhibition of biofilm formation at 44 ug/ml after 20 hrs by crystal-violet staining method relative to control; type: functional; settings: ATCC 25923, 20 h

- IC50 (Pseudomonas aeruginosa [35]): > 87.5 µg/mL
- IC50 [36]: > 87.5 µg/mL
SMILES: COc1ccc(C)cc1C1=C(Br)C(=O)O/C1=C\c1cccc(Cl)c1
- Activity (Streptococcus mutans [1]): 12.1%
- Activity (Streptococcus mutans [2]): 19.8%
- Activity (Streptococcus mutans [3]): 34.9%
- Activity (Staphylococcus aureus [4]): 23%
- Activity (Staphylococcus aureus [5]): 47.5%
- Activity (Staphylococcus aureus [6]): 52.2%
- Activity (Staphylococcus aureus [7]): 50.6%
- Activity (Staphylococcus aureus [8]): 35.4%
- Activity (Staphylococcus aureus [9]): 46.8%
- Activity (Staphylococcus aureus [10]): 34.9%
- Activity (Staphylococcus aureus [11]): 39.3%
- Activity (Staphylococcus aureus [12]): 66.1%
- Activity (Staphylococcus aureus [13]): 131%
- Activity (Pseudomonas aeruginosa [14]): -3%
- Activity (Pseudomonas aeruginosa [15]): -4.8%
- Activity (Pseudomonas aeruginosa [16]): -0.1%
- Activity (Pseudomonas aeruginosa [17]): 0.8%
- Activity (Pseudomonas aeruginosa [18]): -4.8%
- Activity (Pseudomonas aeruginosa [19]): -8.9%
- Activity (Pseudomonas aeruginosa [20]): -14%
- Activity (Pseudomonas aeruginosa [21]): -12.1%
- Activity (Pseudomonas aeruginosa [22]): -8.5%
- Activity (Pseudomonas aeruginosa [23]): 7.8%
- Activity [24]: 13.2%
- Activity [25]: 10.3%
- Activity [26]: 11.9%
- Activity [27]: 4.9%
- Activity [28]: -4%
- Activity [29]: 4%
- Activity [30]: -3.1%
- Activity [31]: 8.9%
- Activity [32]: 12.7%
- Activity [33]: 33.8%
- Activity (Streptococcus mutans [34]): Toxic
- inhibition (Pseudomonas aeruginosa [35]): Dose-dependent effect
- inhibition [36]: Dose-dependent effect
- Activity (Streptococcus mutans [37]): 10.2%
- Activity (Streptococcus mutans [38]): 9.9%
- Activity (Streptococcus mutans [39]): -5.8%
- Activity (Streptococcus mutans [40]): 0%
- Activity (Streptococcus mutans [41]): 8.2%
- Activity (Streptococcus mutans [42]): 5.2%
- Activity (Streptococcus mutans [43]): -2.7%

- IC50 (Staphylococcus aureus [44]): 6.8 µM
- IC50 (Pseudomonas aeruginosa [35]): > 87.5 µg/mL
- IC50 [36]: 83.4 µg/mL (≈ 153 µM)
SMILES: COc1ccc(Cl)cc1C1=C(Br)C(=O)N(CC(C)C)C1(O)Cc1ccccc1Br (stereo unspecified)
- Activity (Streptococcus mutans [1]): 15.4%
- Activity (Streptococcus mutans [2]): 24.4%
- Activity (Streptococcus mutans [3]): 24.4%
- Activity (Staphylococcus aureus [4]): 8.4%
- Activity (Staphylococcus aureus [5]): 6.2%
- Activity (Staphylococcus aureus [6]): 3.7%
- Activity (Staphylococcus aureus [7]): 5.9%
- Activity (Staphylococcus aureus [8]): -9%
- Activity (Staphylococcus aureus [9]): -1.3%
- Activity (Staphylococcus aureus [10]): -2.4%
- Activity (Staphylococcus aureus [11]): 4.2%
- Activity (Staphylococcus aureus [12]): 12.8%
- Activity (Staphylococcus aureus [13]): 14.3%
- Activity (Pseudomonas aeruginosa [14]): -7.2%
- Activity (Pseudomonas aeruginosa [15]): -9.6%
- Activity (Pseudomonas aeruginosa [16]): -6.4%
- Activity (Pseudomonas aeruginosa [17]): -5.6%
- Activity (Pseudomonas aeruginosa [18]): -13.8%
- Activity (Pseudomonas aeruginosa [19]): -13.5%
- Activity (Pseudomonas aeruginosa [20]): -14.9%
- Activity (Pseudomonas aeruginosa [21]): -9.2%
- Activity (Pseudomonas aeruginosa [22]): 5.7%
- Activity (Pseudomonas aeruginosa [23]): 24.8%
- Activity [24]: 9.4%
- Activity [25]: 2.6%
- Activity [26]: 9.4%
- Activity [27]: 7.8%
- Activity [28]: 21.5%
- Activity [29]: 6.4%
- Activity [30]: 4.2%
- Activity [31]: 13.2%
- Activity [32]: 28.8%
- Activity [33]: 17.6%
- inhibition at 44 µg/mL (Staphylococcus aureus [45]): 53.1%
- inhibition (Pseudomonas aeruginosa [35]): Dose-dependent effect
- inhibition [36]: Dose-dependent effect
- Activity (Streptococcus mutans [37]): -16.1%
- Activity (Streptococcus mutans [38]): -13.8%
- Activity (Streptococcus mutans [39]): -7.7%
- Activity (Streptococcus mutans [40]): 3.5%
- Activity (Streptococcus mutans [41]): 1.6%
- Activity (Streptococcus mutans [42]): 9%
- Activity (Streptococcus mutans [43]): 9%
